Assays:
[1] = ferryl myoglobin reduction kinetics by deferiprone; format: biochemical; conditions: for concentration dependence of ferryl reduction rate constant (high affinity through-protein electron transfer pathway): reductant deferiprone, ferryl myoglobin 10 μM, sodium phosphate pH 7.4, 25° C.
Protocol: In this example the kinetics of the reduction of ferryl haem from myoglobin from different species to ferric haem protein were examined kinetically to determine the presence or absence of a high affinity-through protein pathway. Following the procedure, ferric horse myoglobin from Sigma-Aldrich (Poole, Dorset, UK, further purified by gel filtration), or recombinant ferric Aplysia myoglobin Mb (20 μM) in 5 mM sodium phosphate pH 7.4 was reacted with H2O2 (20 μM) at 25° C. for 15 min. At this time conversion of ferric myoglobin to ferryl myoglobin was greater than 95% as measured by addition of sodium sulfide (1 mM). Catalase (10 nM) was added to remove unreacted H2O2 and was left to react for a further 1 min. At the pH used the ferryl haem protein is stable for several hours. Reductant was then added in 0.1M sodium phosphate pH 7.4 in a 1:1 volume ratio so that final concentration of ferryl myoglobin was 10 μM. The pH may be ‘jumped’ to other values where the ferryl haem is unstable using other strong buffers (e.g. 0.1M sodium acetate, pH 5). The optical spectrum was followed until reaction was complete. The time course (425 nm-408 nm) was fitted to a single exponential function using the least squares method. These rate constants were then plotted as a function of reductant concentration and this profile fitted (least squares method) to a double rectangular hyperbola (FIG. 1):
Where ka and kb are the maximum rates for each hyperbola and KD1 and KD2 are the dissociation constants, S is the concentration of the reductant and AR is the rate constant for ferryl auto-reduction.
Wild-type and recombinant sperm whale myoglobin and recombinant Tyr103>Phe sperm whale myoglobin were reacted with peroxide and the kinetics of ferryl haem reduction by deferiprone determined as described in example 1. The through-protein electron transfer pathway, evident in wild type sperm whale myoglobin, is not observed in the Tyr103>Phe mutant (FIG. 2).

[2] = ferryl human haemoglobin reduction kinetics by ascorbate; format: biochemical; conditions: reductant ascorbate; 10 μM ferryl protein; sodium phosphate pH 7.4; double exponential fit
Description: Recombinant human haemoglobin was reacted with peroxide and the kinetics of ferryl haem reduction by ascorbate determined as described in example 1. The time course of ferryl haem reduction is not single exponential, as observed with myoglobin, but can be described using a double exponential function that generates two rate constants, one representing the observed rate constant for ferryl reduction of the alpha subunit and one representing the observed rate constant for ferryl reduction of the beta subunit.

Row | Molecule | concentration dependence of ferryl reduction rate constant (high affinity through-protein electron transfer pathway) [1] | further results
1 | Tyr103>Phe mutant: recombinant Tyr103>Phe sperm whale myoglobin | not observed | 
2 | wild type ferryl human haemoglobin: recombinant wild type human haemoglobin, alpha and beta subunits |  | concentration dependence of ferryl reduction rate constant, alpha subunit [2]: double rectangular hyperbola concentration dependence
3 | wild type sperm whale myoglobin: wild-type recombinant sperm whale myoglobin | evident | 
4 | Horse myoglobin: ferric horse myoglobin from Sigma-Aldrich, further purified by gel filtration (protein, UniProt P68082 2-154, looked up, ferric, ferric horse myoglobin from Sigma-Aldrich, further purified by gel filtration) Myoglobin: GLSDGEWQQVLNVWGKVEADIAGHGQEVLIRLFTGHPETLEKFDKFKHLKTEAEMKASEDLKKHGTVVLTALGGILKKKGHHEAELKPLAQSHATKHKIPIKYLEFISDAIIHVLHSKHPGDFGADAQGAMTKALELFRNDIAAKYKELGFQG | shows a double rectangular hyperbola concentration dependence | 
5 | myoglobin: myoglobin in its ferryl oxidation state, two site model based on FIGS. 1 and 2 data (protein, UniProt P02144 2-154, looked up, ferryl oxidation state) Myoglobin: GLSDGEWQLVLNVWGKVEADIPGHGQEVLIRLFKGHPETLEKFDKFKHLKSEDEMKASEDLKKHGATVLTALGGILKKKGHHEAEIKPLAQSHATKHKIPVKYLEFISECIIQVLQSKHPGDFGADAQGAMNKALELFRKDMASNYKELGFQG |  | kmax, transfer of an electron through the protein to the ferryl haem iron (high affinity site) ([1]; two site model of FIGS. 1 and 2 data, site at or close to Tyr103): ≈ 0.01 s^−1
